Assay: recombinant barcode read abundance after kanamycin selection (control-corrected) (log10(CPM+1)); higher = more efficient recombination; sequences stand for … in AGTGCAGAGAAAATCGGCCAGTTTTCTCTGCCTGCAGTCCGCATGCCGT…AGATTTATGCAGCGGACTGCCTTTCTCCCAAAGTGATAAACCGGACAGTATCATGGACCGGTTTTCCCGGTAATCCGTATTTGCAAGGTTGGTTTCACT; site = the 11-nt target
Method: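 Pooled E. coli target-specificity screen for the IS621 bridge recombinase. Each library plasmid pairs an 11-nt target (CT core) with a bridge RNA whose target-binding loop (9-nt LTG + 4-nt RTG) is reprogrammed; the rest of the 177-nt WT IS621 bridge RNA scaffold is fixed. The plasmid is co-electroporated with a WT donor plasmid; recombinase is induced with 0.1 mM IPTG and recombinants are selected on kanamycin. Recombinant barcodes are sequenced, converted to CPM, averaged over two biological replicates and corrected by the unselected control CPM. Molecule = full bridge RNA written as DNA: LTG = specificity nt 1-9, RTG = reverse complement of specificity nt 8-11, in the WT scaffold.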
In the case of “AATGAATCTTGGGTTCTAACCTGTTGCCT (site AATGCATCTAG)”, the “recombinant barcode read abundance (log10)” value is reported as 0.255.
For “AATGAATCTTGGGTTCTAACCTGTTGCCT (site AATGGATCTAG)”, the “recombinant barcode read abundance (log10)” value was 0.53.
For “AATGAATCTTGGGTTCTAACCTGTTGCCT (site AATGTATCTAG)”, the “recombinant barcode read abundance (log10)” value was 0.301.
For “AATGGGCCTTGGGTTCTAACCTGTTGCCT (site AATGGGACTAG)”, the “recombinant barcode read abundance (log10)” value was 0.131.
In the case of “AATGGGCCTTGGGTTCTAACCTGTTGCCT (site AATGGGCCTAG)”, the “recombinant barcode read abundance (log10)” value is reported as 0.273.
With “AATGGGCCTTGGGTTCTAACCTGTTGCCT (site AATGGGGCTAG)” the “recombinant barcode read abundance (log10)” value was 0.179.
For “AATGGGCCTTGGGTTCTAACCTGTTGCCT (site AATGGGTCTAG)”, the “recombinant barcode read abundance (log10)” value was 0.201.
With “AATGGGGCTTGGGTTCTAACCTGTTGCTG (site AATGGGGCTCA)” the “recombinant barcode read abundance (log10)” value was 1.15.
In the case of “AATGGGGCTTGGGTTCTAACCTGTTGCTG (site TATGGAGCTCA)”, the “recombinant barcode read abundance (log10)” value is reported as 0.0813.
For “AATGTACCTTGGGTTCTAACCTGTTGCCT (site AATGTACCTAG)”, the “recombinant barcode read abundance (log10)” value was 1.89.
With “AATGTACCTTGGGTTCTAACCTGTTGCCT (site CATGTACCTAG)” the “recombinant barcode read abundance (log10)” value was 0.45.
In the case of “AATGTACCTTGGGTTCTAACCTGTTGCCT (site GATGTACCTAG)”, the “recombinant barcode read abundance (log10)” value is reported as 0.0545.
With “AATGTACCTTGGGTTCTAACCTGTTGCCT (site TATGTACCTAG)” the “recombinant barcode read abundance (log10)” value was 1.27.
In the case of “AATGTGTCTTGGGTTCTAACCTGTTGCCT (site AAAGTGTCTAG)”, the “recombinant barcode read abundance (log10)” value is reported as 0.663.
In the case of “AATGTGTCTTGGGTTCTAACCTGTTGCCT (site AACGTGTCTAG)”, the “recombinant barcode read abundance (log10)” value is reported as 1.47.
For “AATGTGTCTTGGGTTCTAACCTGTTGCCT (site AAGGTGTCTAG)”, the “recombinant barcode read abundance (log10)” value was 1.01.
For “AATGTGTCTTGGGTTCTAACCTGTTGCCT (site AATGTGTCTAG)”, the “recombinant barcode read abundance (log10)” value was 2.59.
In the case of “AATTAGACTTGGGTTCTAACCTGTTGCCT (site AATTAGACTAG)”, the “recombinant barcode read abundance (log10)” value is reported as 1.12.
With “AATTAGACTTGGGTTCTAACCTGTTGCCT (site CATTAGACTAG)” the “recombinant barcode read abundance (log10)” value was 0.152.
With “AATTAGACTTGGGTTCTAACCTGTTGCCT (site GATTAGACTAG)” the “recombinant barcode read abundance (log10)” value was 0.226.
In the case of “AATTAGACTTGGGTTCTAACCTGTTGCCT (site TATTAGACTAG)”, the “recombinant barcode read abundance (log10)” value is reported as 0.125.
In the case of “AATTAGCCTTGGGTTCTAACCTGTTGCCT (site AATTAGCCTAG)”, the “recombinant barcode read abundance (log10)” value is reported as 0.488.
For “AATTAGCCTTGGGTTCTAACCTGTTGCCT (site GTGAGCACTTA)”, the “recombinant barcode read abundance (log10)” value was 0.185.
In the case of “AATTGGCCTTGGGTTCTAACCTGTTGCTT (site AATTGGCCTAA)”, the “recombinant barcode read abundance (log10)” value is reported as 0.344.
For “AATTGGCCTTGGGTTCTAACCTGTTGCTT (site GATAGGCCTAA)”, the “recombinant barcode read abundance (log10)” value was 0.37.
In the case of “AATTTAGCTTGGGTTCTAACCTGTTGCCT (site AATTAAGCTAG)”, the “recombinant barcode read abundance (log10)” value is reported as 0.172.
With “AATTTAGCTTGGGTTCTAACCTGTTGCCT (site AATTCAGCTAG)” the “recombinant barcode read abundance (log10)” value was 0.169.
For “AATTTAGCTTGGGTTCTAACCTGTTGCCT (site AATTGAGCTAG)”, the “recombinant barcode read abundance (log10)” value was 0.0396.
For “AATTTAGCTTGGGTTCTAACCTGTTGCCT (site AATTTAGCTAG)”, the “recombinant barcode read abundance (log10)” value was 0.244.
For “ACAAAACCTTGGGTTCTAACCTGTTGCCT (site ACAAAACCTAG)”, the “recombinant barcode read abundance (log10)” value was 0.171.
With “ACAAAACCTTGGGTTCTAACCTGTTGCCT (site ACAAACCCTAG)” the “recombinant barcode read abundance (log10)” value was 0.461.
With “ACAAAACCTTGGGTTCTAACCTGTTGCCT (site ACAAAGCCTAG)” the “recombinant barcode read abundance (log10)” value was 0.0848.
For “ACAAAACCTTGGGTTCTAACCTGTTGCCT (site ACAAATCCTAG)”, the “recombinant barcode read abundance (log10)” value was 0.0655.
With “ACAAAAGCTTGGGTTCTAACCTGTTGCGG (site ACAAAAGCTCC)” the “recombinant barcode read abundance (log10)” value was 1.59.
In the case of “ACAAAAGCTTGGGTTCTAACCTGTTGCGG (site ACAAAGGCTCC)”, the “recombinant barcode read abundance (log10)” value is reported as 0.514.
With “ACAAAGACTTGGGTTCTAACCTGTTGCCT (site ACAAAGACTAG)” the “recombinant barcode read abundance (log10)” value was 0.847.
In the case of “ACAAAGACTTGGGTTCTAACCTGTTGCCT (site ACAAGGGCTAG)”, the “recombinant barcode read abundance (log10)” value is reported as 0.0359.
For “ACAACCACTTGGGTTCTAACCTGTTGCCT (site ACAACCACTAG)”, the “recombinant barcode read abundance (log10)” value was 0.235.
With “ACAACCACTTGGGTTCTAACCTGTTGCCT (site ACAACGACTAG)” the “recombinant barcode read abundance (log10)” value was 0.0258.
In the case of “ACAACCTCTTGGGTTCTAACCTGTTGCCG (site ACAACCTCTCG)”, the “recombinant barcode read abundance (log10)” value is reported as 1.23.
In the case of “ACAACCTCTTGGGTTCTAACCTGTTGCCG (site TAGGGTACTGC)”, the “recombinant barcode read abundance (log10)” value is reported as 0.
With “ACAAGCACTTGGGTTCTAACCTGTTGCCT (site ACAAGCACTAG)” the “recombinant barcode read abundance (log10)” value was 1.46.
With “ACAAGCACTTGGGTTCTAACCTGTTGCCT (site ACCATCACTAG)” the “recombinant barcode read abundance (log10)” value was 0.2.
With “ACAAGGGCTTGGGTTCTAACCTGTTGCCT (site ACAAAGACTAG)” the “recombinant barcode read abundance (log10)” value was 0.261.
With “ACAAGGGCTTGGGTTCTAACCTGTTGCCT (site ACAAGGGCTAG)” the “recombinant barcode read abundance (log10)” value was 0.547.
In the case of “ACAAGTCCTTGGGTTCTAACCTGTTGCGG (site ACAAGTCCTCC)”, the “recombinant barcode read abundance (log10)” value is reported as 1.74.
With “ACAAGTCCTTGGGTTCTAACCTGTTGCGG (site ATAAGTCCTTC)” the “recombinant barcode read abundance (log10)” value was 0.0466.
For “ACAATGTCTTGGGTTCTAACCTGTTGCGG (site ACAATGTCTCC)”, the “recombinant barcode read abundance (log10)” value was 1.27.
With “ACAATGTCTTGGGTTCTAACCTGTTGCGG (site ACACTGTCTCC)” the “recombinant barcode read abundance (log10)” value was 0.148.
In the case of “ACAATGTCTTGGGTTCTAACCTGTTGCGG (site ACAGTGTCTCC)”, the “recombinant barcode read abundance (log10)” value is reported as 0.192.
For “ACAATGTCTTGGGTTCTAACCTGTTGCGG (site ACATTGTCTCC)”, the “recombinant barcode read abundance (log10)” value was 0.427.
In the case of “ACACACTCTTGGGTTCTAACCTGTTGCTG (site ACACACTCTCA)”, the “recombinant barcode read abundance (log10)” value is reported as 1.97.
For “ACACACTCTTGGGTTCTAACCTGTTGCTG (site ACACTCCCTCA)”, the “recombinant barcode read abundance (log10)” value was 0.0463.
In the case of “ACACCACCTTGGGTTCTAACCTGTTGCCT (site AAACCACCTAG)”, the “recombinant barcode read abundance (log10)” value is reported as 0.585.
With “ACACCACCTTGGGTTCTAACCTGTTGCCT (site ACACCACCTAG)” the “recombinant barcode read abundance (log10)” value was 0.0741.
For “ACACCACCTTGGGTTCTAACCTGTTGCCT (site AGACCACCTAG)”, the “recombinant barcode read abundance (log10)” value was 0.179.
In the case of “ACACCACCTTGGGTTCTAACCTGTTGCCT (site ATACCACCTAG)”, the “recombinant barcode read abundance (log10)” value is reported as 0.0171.
In the case of “ACACGCCCTTGGGTTCTAACCTGTTGCAC (site ACACGCCCTGT)”, the “recombinant barcode read abundance (log10)” value is reported as 0.333.
With “ACACGCCCTTGGGTTCTAACCTGTTGCAC (site AGACTCCCTGT)” the “recombinant barcode read abundance (log10)” value was 0.0104.
For “ACACGGCCTTGGGTTCTAACCTGTTGCCG (site ACACGGCCTCG)”, the “recombinant barcode read abundance (log10)” value was 0.428.
In the case of “ACACGGCCTTGGGTTCTAACCTGTTGCCG (site TAGTACGCTAA)”, the “recombinant barcode read abundance (log10)” value is reported as 0.145.
With “ACACTAACTTGGGTTCTAACCTGTTGCCT (site AAACTAACTAG)” the “recombinant barcode read abundance (log10)” value was 0.071.
With “ACACTAACTTGGGTTCTAACCTGTTGCCT (site ACACTAACTAG)” the “recombinant barcode read abundance (log10)” value was 0.404.
In the case of “ACACTAACTTGGGTTCTAACCTGTTGCCT (site AGACTAACTAG)”, the “recombinant barcode read abundance (log10)” value is reported as 0.0933.
In the case of “ACACTAACTTGGGTTCTAACCTGTTGCCT (site ATACTAACTAG)”, the “recombinant barcode read abundance (log10)” value is reported as 0.
In the case of “ACACTGGCTTGGGTTCTAACCTGTTGCCT (site ACACTGGCTAG)”, the “recombinant barcode read abundance (log10)” value is reported as 0.987.
In the case of “ACACTGGCTTGGGTTCTAACCTGTTGCCT (site ACCCTGGCTAG)”, the “recombinant barcode read abundance (log10)” value is reported as 0.0877.
In the case of “ACACTGGCTTGGGTTCTAACCTGTTGCCT (site ACGCTGGCTAG)”, the “recombinant barcode read abundance (log10)” value is reported as 0.025.
In the case of “ACACTGGCTTGGGTTCTAACCTGTTGCCT (site ACTCTGGCTAG)”, the “recombinant barcode read abundance (log10)” value is reported as 0.
For “ACAGAGACTTGGGTTCTAACCTGTTGCAC (site ACAGAGACTGT)”, the “recombinant barcode read abundance (log10)” value was 1.76.
For “ACAGAGACTTGGGTTCTAACCTGTTGCAC (site ACAGAGACTTA)”, the “recombinant barcode read abundance (log10)” value was 0.183.
With “ACAGATTCTTGGGTTCTAACCTGTTGCCT (site ACAGATTCTAG)” the “recombinant barcode read abundance (log10)” value was 1.73.
For “ACAGATTCTTGGGTTCTAACCTGTTGCCT (site ATAGAGTCTAG)”, the “recombinant barcode read abundance (log10)” value was 0.0143.
With “ACAGGAGCTTGGGTTCTAACCTGTTGCGG (site ACACGACCTCC)” the “recombinant barcode read abundance (log10)” value was 0.154.
For “ACAGGAGCTTGGGTTCTAACCTGTTGCGG (site ACAGGAGCTCC)”, the “recombinant barcode read abundance (log10)” value was 2.61.
In the case of “ACAGGATCTTGGGTTCTAACCTGTTGCTT (site ACAGAATCTAG)”, the “recombinant barcode read abundance (log10)” value is reported as 0.55.
In the case of “ACAGGATCTTGGGTTCTAACCTGTTGCTT (site ACAGGATCTAA)”, the “recombinant barcode read abundance (log10)” value is reported as 2.18.
In the case of “ACAGGTTCTTGGGTTCTAACCTGTTGCCT (site AAAGGTTCTAG)”, the “recombinant barcode read abundance (log10)” value is reported as 0.0508.
For “ACAGGTTCTTGGGTTCTAACCTGTTGCCT (site ACAGGTTCTAG)”, the “recombinant barcode read abundance (log10)” value was 2.24.
With “ACAGGTTCTTGGGTTCTAACCTGTTGCCT (site AGAGGTTCTAG)” the “recombinant barcode read abundance (log10)” value was 0.283.
With “ACAGGTTCTTGGGTTCTAACCTGTTGCCT (site ATAGGTTCTAG)” the “recombinant barcode read abundance (log10)” value was 0.0396.
With “ACAGTAGCTTGGGTTCTAACCTGTTGCCG (site ACAGTAGCTCC)” the “recombinant barcode read abundance (log10)” value was 0.189.

— the supplement of paper PMC11208160
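Further: IS621 recombinase and bridge RNA in Escherichia coli cells.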
